# Measurements reported in PubChem BioAssay AID1963966 (Molecular Pharmacology Branch, DTP, NCI, 2024).
# System: 935938-334-R-J1-PDC spheroids with HUVEC/MSC, viability
# Assay: Anticancer human tumor 935938-334-R-J1-PDC patient-derived small intestine adenocarcinoma cell line growth inhibition [PI3K]
# Details: for IC50: curve of first compound; for viability, T/C: stronger effect = lower value
# Summary of the method: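 Multi-cell spheroids combine tumor cells with HUVEC and human MSCs, treated with targeted agents alone or with inavolisib, alpelisib, duvelisib or copanlisib. Concentrations fall in half-log steps from at or near clinical Cmax, or from 10 microM where Cmax is unknown; viability read-out.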
# [1] = second compound 0.00316 µM, first compound 0.0316 µM
# [2] = second compound 0.00316 µM, first compound 0.1 µM
# [3] = second compound 0.00316 µM, first compound 0.316 µM
# [4] = second compound 0.00316 µM, first compound 1 µM
# [5] = second compound 0.00316 µM, first compound 3.16 µM
# [6] = second compound 0.00316 µM, first compound 10 µM
# [7] = second compound 0.01 µM, first compound 0.0316 µM
# [8] = second compound 0.01 µM, first compound 0.1 µM
# [9] = second compound 0.01 µM, first compound 0.316 µM
# [10] = second compound 0.01 µM, first compound 1 µM
# [11] = second compound 0.01 µM, first compound 3.16 µM
# [12] = second compound 0.01 µM, first compound 10 µM
# [13] = second compound 0.0316 µM, first compound 0.0316 µM
# [14] = second compound 0.0316 µM, first compound 0.1 µM
# [15] = second compound 0.0316 µM, first compound 0.316 µM
# [16] = second compound 0.0316 µM, first compound 1 µM
# [17] = second compound 0.0316 µM, first compound 3.16 µM
# [18] = second compound 0.0316 µM, first compound 10 µM
# [19] = second compound 0.1 µM, first compound 0.0316 µM
# [20] = second compound 0.1 µM, first compound 0.1 µM
# [21] = second compound 0.1 µM, first compound 0.316 µM
# [22] = second compound 0.1 µM, first compound 1 µM
# [23] = second compound 0.1 µM, first compound 3.16 µM
# [24] = second compound 0.1 µM, first compound 10 µM
# [25] = second compound 0.316 µM, first compound 0.0316 µM
# [26] = second compound 0.316 µM, first compound 0.1 µM
# [27] = second compound 0.316 µM, first compound 0.316 µM
# [28] = second compound 0.316 µM, first compound 1 µM
# [29] = second compound 0.316 µM, first compound 3.16 µM
# [30] = second compound 0.316 µM, first compound 10 µM
# [31] = second compound 1 µM, first compound 0.0316 µM
# [32] = second compound 1 µM, first compound 0.1 µM
# [33] = second compound 1 µM, first compound 0.316 µM
# [34] = second compound 1 µM, first compound 1 µM
# [35] = second compound 1 µM, first compound 3.16 µM
# [36] = second compound 1 µM, first compound 10 µM
# 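Further: compound exposure lasted seven days before viability was read.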
# 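Wherever viability, T/C is given: percent of vehicle DMSO treated spheroid viability so 100% = untreated.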
smiles,measurement,setting,value
CC(C)NCC(C(=O)N1CCN(c2ncnc3c2C(C)CC3O)CC1)c1ccc(Cl)cc1 (stereo unspecified) + COc1c(OCCCN2CCOCC2)ccc2c3n(c(=NC(=O)c4cnc(N)nc4)nc12)CCN3,IC50,second compound 0.00316 µM,5660 nM
same,IC50,second compound 0.01 µM,2730 nM
same,IC50,second compound 0.0316 µM,1310 nM
same,IC50,second compound 0.1 µM,< 31.6 nM
same,IC50,second compound 0.316 µM,< 31.6 nM
same,IC50,second compound 1 µM,< 31.6 nM
same,"viability, T/C",[1],94.5%
same,"viability, T/C",[2],99%
same,"viability, T/C",[3],84.8%
same,"viability, T/C",[4],65.5%
same,"viability, T/C",[5],62.5%
same,"viability, T/C",[6],41.5%
same,"viability, T/C",[7],85.5%
same,"viability, T/C",[8],106%
same,"viability, T/C",[9],82%
same,"viability, T/C",[10],61.1%
same,"viability, T/C",[11],54.5%
same,"viability, T/C",[12],39.8%
same,"viability, T/C",[13],84.2%
same,"viability, T/C",[14],67.4%
same,"viability, T/C",[15],68%
same,"viability, T/C",[16],48.5%
same,"viability, T/C",[17],45.5%
same,"viability, T/C",[18],29.5%
same,"viability, T/C",[19],48.3%
same,"viability, T/C",[20],49.4%
same,"viability, T/C",[21],39.3%
same,"viability, T/C",[22],44.3%
same,"viability, T/C",[23],40.8%
same,"viability, T/C",[24],30.4%
same,"viability, T/C",[25],30.6%
same,"viability, T/C",[26],40.4%
same,"viability, T/C",[27],29.8%
same,"viability, T/C",[28],33.7%
same,"viability, T/C",[29],26.7%
same,"viability, T/C",[30],30.3%
same,"viability, T/C",[31],36.6%
same,"viability, T/C",[32],34.7%
same,"viability, T/C",[33],37%
same,"viability, T/C",[34],34.2%
same,"viability, T/C",[35],30.1%
same,"viability, T/C",[36],33.2%
CCN1CCN(Cc2ccc(Nc3ncc(F)c(-c4cc(F)c5nc(C)n(C(C)C)c5c4)n3)nc2)CC1 + COc1c(OCCCN2CCOCC2)ccc2c3n(c(=NC(=O)c4cnc(N)nc4)nc12)CCN3,IC50,second compound 0.00316 µM,296 nM
same,IC50,second compound 0.01 µM,582 nM
same,IC50,second compound 0.0316 µM,91.8 nM
same,IC50,second compound 0.1 µM,< 3.16 nM
same,IC50,second compound 0.316 µM,< 3.16 nM
same,IC50,second compound 1 µM,< 3.16 nM
same,"viability, T/C","second compound 0.00316 µM, first compound 0.00316 µM",80.1%
same,"viability, T/C","second compound 0.00316 µM, first compound 0.01 µM",93.5%
same,"viability, T/C",[1],89.8%
same,"viability, T/C",[2],72%
same,"viability, T/C",[3],49.9%
same,"viability, T/C",[4],43.5%
same,"viability, T/C","second compound 0.01 µM, first compound 0.00316 µM",97.4%
same,"viability, T/C","second compound 0.01 µM, first compound 0.01 µM",74%
same,"viability, T/C",[7],68.6%
same,"viability, T/C",[8],60.4%
same,"viability, T/C",[9],51.8%
same,"viability, T/C",[10],47.1%
same,"viability, T/C","second compound 0.0316 µM, first compound 0.00316 µM",66.5%
same,"viability, T/C","second compound 0.0316 µM, first compound 0.01 µM",66.1%
same,"viability, T/C",[13],60.8%
same,"viability, T/C",[14],47.8%
same,"viability, T/C",[15],38.8%
same,"viability, T/C",[16],30.3%
same,"viability, T/C","second compound 0.1 µM, first compound 0.00316 µM",45.9%
same,"viability, T/C","second compound 0.1 µM, first compound 0.01 µM",40.7%
same,"viability, T/C",[19],37%
same,"viability, T/C",[20],37.7%
same,"viability, T/C",[21],29.6%
same,"viability, T/C",[22],28.4%
same,"viability, T/C","second compound 0.316 µM, first compound 0.00316 µM",36.2%
same,"viability, T/C","second compound 0.316 µM, first compound 0.01 µM",33.8%
same,"viability, T/C",[25],27.1%
same,"viability, T/C",[26],29.6%
same,"viability, T/C",[27],33.1%
same,"viability, T/C",[28],30.8%
same,"viability, T/C","second compound 1 µM, first compound 0.00316 µM",32.6%
same,"viability, T/C","second compound 1 µM, first compound 0.01 µM",35%
same,"viability, T/C",[31],35.6%
same,"viability, T/C",[32],28.5%
same,"viability, T/C",[33],32.7%
same,"viability, T/C",[34],28.6%
Cn1ncc(Cl)c1-c1cc(C(=O)NC(CN)Cc2cccc(F)c2)sc1Cl (stereo unspecified) + COc1c(OCCCN2CCOCC2)ccc2c3n(c(=NC(=O)c4cnc(N)nc4)nc12)CCN3,IC50,second compound 0.00316 µM,1680 nM
same,IC50,second compound 0.01 µM,1180 nM
same,IC50,second compound 0.0316 µM,1040 nM
same,IC50,second compound 0.1 µM,57.2 nM
same,IC50,second compound 0.316 µM,< 31.6 nM
same,IC50,second compound 1 µM,< 31.6 nM
same,"viability, T/C",[1],103%
same,"viability, T/C",[2],114%
same,"viability, T/C",[3],60.6%
same,"viability, T/C",[4],63.7%
same,"viability, T/C",[5],49.3%
same,"viability, T/C",[6],32.8%
same,"viability, T/C",[7],78.7%
same,"viability, T/C",[8],86.6%
same,"viability, T/C",[9],65.5%
same,"viability, T/C",[10],50.9%
same,"viability, T/C",[11],41.1%
same,"viability, T/C",[12],28.5%
same,"viability, T/C",[13],70.7%
same,"viability, T/C",[14],71.3%
same,"viability, T/C",[15],68%
same,"viability, T/C",[16],50.4%
same,"viability, T/C",[17],30.6%
same,"viability, T/C",[18],25%
same,"viability, T/C",[19],55%
same,"viability, T/C",[20],43%
same,"viability, T/C",[21],41.7%
same,"viability, T/C",[22],37.8%
same,"viability, T/C",[23],25.3%
same,"viability, T/C",[24],27%
same,"viability, T/C",[25],35.5%
same,"viability, T/C",[26],30.2%
same,"viability, T/C",[27],30.9%
same,"viability, T/C",[28],28.6%
same,"viability, T/C",[29],26.8%
same,"viability, T/C",[30],20.9%
same,"viability, T/C",[31],33.5%
same,"viability, T/C",[32],26.9%
same,"viability, T/C",[33],34.2%
same,"viability, T/C",[34],34.5%
same,"viability, T/C",[35],32.6%
same,"viability, T/C",[36],21.6%
